Residue numbers refer to the chain shown, from its start. Read-outs that look alike come from different tables or passages of the source. Positions of bridges follow the written chain, without caps; N, C: chain ends. Residues, ends and D or L forms follow the SMILES beside them.

Common to all, as to assay: cell-based
The target in assay [1] is T1, rKv4.2 (Rattus norvegicus, UniProt Q63881).
T1 construct: expressed in transfected cells; host or cells: HEK293T
T1 sequence (Q63881 1-630): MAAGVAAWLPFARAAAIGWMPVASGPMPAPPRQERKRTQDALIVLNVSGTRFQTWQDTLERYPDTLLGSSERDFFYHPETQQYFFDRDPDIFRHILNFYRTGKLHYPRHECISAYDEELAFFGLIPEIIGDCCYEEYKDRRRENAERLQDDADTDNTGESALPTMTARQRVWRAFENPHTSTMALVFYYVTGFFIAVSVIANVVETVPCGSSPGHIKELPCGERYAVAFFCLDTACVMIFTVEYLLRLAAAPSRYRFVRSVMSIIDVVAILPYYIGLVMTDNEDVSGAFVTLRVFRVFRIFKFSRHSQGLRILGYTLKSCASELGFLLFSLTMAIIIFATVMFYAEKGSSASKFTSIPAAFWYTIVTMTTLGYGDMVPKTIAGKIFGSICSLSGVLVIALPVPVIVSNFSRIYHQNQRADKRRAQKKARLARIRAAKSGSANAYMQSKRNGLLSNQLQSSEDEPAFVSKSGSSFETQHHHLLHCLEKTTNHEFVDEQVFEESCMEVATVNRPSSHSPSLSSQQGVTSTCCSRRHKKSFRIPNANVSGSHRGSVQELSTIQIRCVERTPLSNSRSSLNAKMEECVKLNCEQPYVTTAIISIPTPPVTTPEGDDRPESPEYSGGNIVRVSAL
The settings on record: whole-cell patch clamp, HEK293T, n = 3-8, SEM. On the technique in general: In patch-clamp work, channel activity is measured electrically.

The target in assay [2] is T2, rKv4.2 D281K (Rattus norvegicus, UniProt Q63881, D281K).
T2 construct: expressed in transfected cells; host or cells: HEK293T
T2 sequence (Q63881 1-630 D281K): T1 sequence (Q63881 1-630) with D281K
The settings on record: mean ± SEM.

The target in assay [3] is T3, rKv4.3 (Rattus norvegicus, UniProt Q62897).
T3 construct: expressed in transfected cells; host or cells: HEK293T
T3 sequence (Q62897 1-655): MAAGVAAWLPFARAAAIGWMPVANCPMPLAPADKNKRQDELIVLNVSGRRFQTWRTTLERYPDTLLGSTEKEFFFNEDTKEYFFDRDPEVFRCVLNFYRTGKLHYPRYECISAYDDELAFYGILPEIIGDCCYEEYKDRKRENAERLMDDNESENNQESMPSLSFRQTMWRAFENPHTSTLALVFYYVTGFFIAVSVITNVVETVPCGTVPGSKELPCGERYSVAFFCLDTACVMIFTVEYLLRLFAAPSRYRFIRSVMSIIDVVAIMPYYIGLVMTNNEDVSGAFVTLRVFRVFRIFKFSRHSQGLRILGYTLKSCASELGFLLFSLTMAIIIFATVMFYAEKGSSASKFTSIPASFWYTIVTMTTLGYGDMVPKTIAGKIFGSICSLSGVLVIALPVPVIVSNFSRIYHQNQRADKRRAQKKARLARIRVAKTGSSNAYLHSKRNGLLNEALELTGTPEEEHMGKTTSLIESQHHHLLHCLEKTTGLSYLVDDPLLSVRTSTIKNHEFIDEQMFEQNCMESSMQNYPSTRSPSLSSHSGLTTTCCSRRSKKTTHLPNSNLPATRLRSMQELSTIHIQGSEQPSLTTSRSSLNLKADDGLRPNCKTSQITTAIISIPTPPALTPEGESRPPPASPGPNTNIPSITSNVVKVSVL
The note with it: whole-cell patch clamp, HEK293T, mean ± S.E.M., SEM.

The target in assay [4] is T4, rKv4.2 M279A (Rattus norvegicus, UniProt Q63881, M279A).
T4 construct: expressed in transfected cells; host or cells: HEK293T
T4 sequence (Q63881 1-630 M279A): T1 sequence (Q63881 1-630) with M279A
The settings on record: mean ± SEM.

[5] abbreviates: mean ± SEM, read-out: IC50 on rKv4.2 WT.
Setting [6] is: held at -80 mV, step to 0 mV, n = 3-8.

Broadly, the IC50 is the midpoint of a concentration-inhibition curve. Consider `CC(C)C[C@H](NC(=O)[C@H](Cc1ccc(O)cc1)NC(=O)[C@@H](NC(=O)[C@H](CCCCN)NC(=O)[C@@H]1CSSC[C@@H]2NC(=O)[C@H](CCC(=O)O)NC(=O)[C@H](CC(N)=O)NC(=O)[C@H](CCCCN)NC(=O)CNC(=O)[C@@H]3CCCN3C(=O)[C@H]([C@@H](C)O)NC(=O)[C@@H]3CSSC[C@H](NC(=O)[C@H](C)NC(=O)[C@H](Cc4ccc(O)cc4)NC(=O)[C@H](CC(N)=O)NC(=O)[C@@H]4CCCN4C(=O)[C@H](CSSC[C@H](NC(=O)CN)C(=O)N[C@@H](CCCCN)C(=O)NCC(=O)N[C@@H](Cc4ccccc4)C(=O)NCC(=O)N[C@@H](CC(=O)O)C(=O)N[C@@H](CO)C(=O)N3)NC2=O)C(=O)N[C@@H](CO)C(=O)N[C@@H](CO)C(=O)N[C@@H](CCCCN)C(=O)N[C@@H](Cc2c[nH]cn2)C(=O)N[C@@H](CCCCN)C(=O)N[C@@H](Cc2c[nH]c3ccccc23)C(=O)N1)C(C)C)C(N)=O` [HNTX-III] (H-GCKGFGDSCTPGKNECCPNYACSSKHKWCKVYL-NH2; disulfide 2-17, 9-22, 16-29), for which the IC50 in assay [1] (setting [5]) stood at 0.162 ± 0.023 µM; in assay [2], 5 ± 1 µM; in assay [3] (setting [6]) it was 0.373 ± 0.0655 µM; in assay [4] it was 1 ± 0.347 µM.
On the same counts, the results for `CC[C@H](C)[C@H](NC(=O)[C@H](CCC(=O)O)NC(=O)[C@H](Cc1ccc(O)cc1)NC(=O)[C@H](CCCCN)NC(=O)[C@@H]1CSSC[C@@H]2NC(=O)[C@H](CCC(N)=O)NC(=O)[C@H](CC(=O)O)NC(=O)[C@H](CC(N)=O)NC(=O)[C@H](CO)NC(=O)[C@@H]3CCCN3C(=O)[C@H](CC(N)=O)NC(=O)[C@@H]3CSSC[C@H](NC(=O)[C@H](C(C)C)NC(=O)[C@H](CC(C)C)NC(=O)[C@H](CC(N)=O)NC(=O)[C@H](CO)NC(=O)[C@H](CO)NC(=O)[C@H](CCCCN)NC(=O)[C@H](CSSC[C@H](NC(=O)[C@@H](N)CCC(=O)O)C(=O)N[C@@H](CC(C)C)C(=O)NCC(=O)N[C@@H](Cc4ccccc4)C(=O)NCC(=O)N[C@@H](CCCCN)C(=O)NCC(=O)N3)NC2=O)C(=O)N[C@@H](CO)C(=O)N[C@@H](CCCNC(=N)N)C(=O)N[C@@H](CCCCN)C(=O)N[C@@H](Cc2c[nH]cn2)C(=O)N[C@@H](CCCNC(=N)N)C(=O)N[C@@H](Cc2c[nH]c3ccccc23)C(=O)N1)C(N)=O` [HNTX-IV] are 0.051 ± 0.01 µM, 0.191 ± 0.032 µM, 0.189 ± 0.0147 µM and 0.167 ± 0.014 µM.
Regarding `CC(C)C[C@@H]1NC(=O)[C@H](Cc2c[nH]c3ccccc23)NC(=O)[C@H](Cc2ccc(O)cc2)NC(=O)[C@H](CCCNC(=N)N)NC(=O)[C@@H](NC(=O)[C@@H](N)CCC(=O)O)CSSC[C@@H]2NC(=O)[C@@H]3CSSC[C@@H](C(=O)N[C@H](C(=O)N[C@@H](Cc4c[nH]c5ccccc45)C(=O)N[C@@H](CC(=O)O)C(=O)N[C@@H](Cc4c[nH]c5ccccc45)C(=O)N[C@H](C(=O)N[C@@H](Cc4ccccc4)C(N)=O)[C@@H](C)O)C(C)C)NC(=O)[C@H](Cc4c[nH]c5ccccc45)NC(=O)CNC(=O)[C@H](Cc4c[nH]cn4)NC(=O)[C@H](CCCCN)NC(=O)[C@@H]4CCCN4C(=O)[C@H](CO)NC(=O)[C@H](CSSC[C@H](NC(=O)[C@H]([C@@H](C)O)NC(=O)CNC1=O)C(=O)N[C@@H](CO)C(=O)N[C@@H](CCCCN)C(=O)N[C@@H]([C@@H](C)O)C(=O)NCC(=O)N[C@@H](CC(=O)O)C(=O)N3)NC(=O)[C@H](CO)NC(=O)[C@H](CC(C)C)NC(=O)[C@H](Cc1c[nH]cn1)NC(=O)[C@H](CO)NC2=O` [HNTX-VIIa] (H-ECRYWLGTCSKTGDCCSHLSCSPKHGWCVWDWTF-NH2; disulfide 2-16, 9-21, 15-28), the half-inhibitory concentration (IC50) stood at 0.018 ± 0.0032 µM in assay [1] (held at -80 mV, step to 0 mV, mean ± S.E.M., read-out: IC50 for rKv4.2); 0.033 ± 0.006 µM in assay [2]; 0.13 ± 0.0145 µM in assay [3] (setting [6]); 0.042 ± 0.006 µM in assay [4].
As for `CC[C@H](C)[C@@H]1NC(=O)[C@@H]2CSSC[C@@H]3NC(=O)[C@H](C(C)C)NC(=O)[C@H](CC(C)C)NC(=O)[C@H](CC(N)=O)NC(=O)[C@@H]4CCCN4C(=O)[C@H](CCCNC(=N)N)NC(=O)[C@H](CSSC[C@H](NC(=O)[C@@H](N)CC(=O)O)C(=O)N[C@@H](CC(C)C)C(=O)NCC(=O)N[C@@H](C)C(=O)N[C@@H](Cc4ccccc4)C(=O)N[C@@H](CCCNC(=N)N)C(=O)N[C@@H](CCCCN)C(=O)N2)NC(=O)[C@H](CSSC[C@@H](C(=O)N[C@@H](CCCCN)C(=O)N[C@@H](Cc2ccc(O)cc2)C(=O)N[C@H](C(=O)N[C@@H](Cc2ccccc2)C(N)=O)C(C)C)NC(=O)[C@H](Cc2c[nH]c4ccccc24)NC(=O)[C@H](CCCNC(=N)N)NC(=O)[C@H](Cc2c[nH]cn2)NC(=O)[C@H](C)NC(=O)[C@H](CO)NC(=O)[C@H](CO)NC3=O)NC(=O)[C@H](CCCCN)NC(=O)[C@H](CC(=O)O)NC(=O)[C@H](CC(N)=O)NC(=O)[C@H](CC(=O)O)NC(=O)[C@@H]2CCCN2C1=O` [mGpTx1-SA] (H-DCLGAFRKCIPDNDKCCRPNLVCSSAHRWCKYVF-NH2; disulfide 2-17, 9-23, 16-30), the IC50 in assay [1] (setting [5]) amounted to 30 ± 9 µM; in assay [3] (n = 5) it was 2 ± 0.3 µM.

Source of the values: PMC11558128 (Advanced Science, 2024).
